For 14 compounds, DC50 and EC50 results are on record in US20250325677A1, “STAT6 DEGRADERS” (Gilead Sciences, Inc., priority 2024, published 2025).

For assay [1], the target named is STAT6 (Homo sapiens (Human), UniProt P42226). Description: STAT6 degrader assay (HiBiT, HeLa LgBiT clone 4.14). The following applies: HeLa LgBiT clone 4.14, 4-24 h; geometric mean; given for compounds with >80% Emax; read-out: STAT6 degradation DC50. The class given is cell-based. Put shortly:
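DC50 (nM) comes from luminescence of non-degraded STAT6 read 0.5 h after Nano-GLO addition, following 4-24 h compound exposure at 37° C. Cells were HeLa clone 4.14 expressing LgBiT with a CRISPR HiBiT tag on endogenous STAT6; 50 μM terfenadine set full degradation.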

For assay [2], the system named is eotaxin-3 release. Description: Human whole blood eotaxin-3 assay (IL-4 stimulated). The class given is cell-based. The following applies: human whole blood, IL-4 0.4 nM, 48 hours; geometric mean; given for compounds with >80% Emax; read-out: Eotaxin-3 EC50. The essentials:
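Human whole blood was preincubated with compound for 120 min at 37 °C, then stimulated with recombinant human IL-4 (E. coli) at 0.4 nM final for 48 h. Inhibition of eotaxin-3 release gave EC50 values.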

Chain of STAT6 (P42226 whole entry): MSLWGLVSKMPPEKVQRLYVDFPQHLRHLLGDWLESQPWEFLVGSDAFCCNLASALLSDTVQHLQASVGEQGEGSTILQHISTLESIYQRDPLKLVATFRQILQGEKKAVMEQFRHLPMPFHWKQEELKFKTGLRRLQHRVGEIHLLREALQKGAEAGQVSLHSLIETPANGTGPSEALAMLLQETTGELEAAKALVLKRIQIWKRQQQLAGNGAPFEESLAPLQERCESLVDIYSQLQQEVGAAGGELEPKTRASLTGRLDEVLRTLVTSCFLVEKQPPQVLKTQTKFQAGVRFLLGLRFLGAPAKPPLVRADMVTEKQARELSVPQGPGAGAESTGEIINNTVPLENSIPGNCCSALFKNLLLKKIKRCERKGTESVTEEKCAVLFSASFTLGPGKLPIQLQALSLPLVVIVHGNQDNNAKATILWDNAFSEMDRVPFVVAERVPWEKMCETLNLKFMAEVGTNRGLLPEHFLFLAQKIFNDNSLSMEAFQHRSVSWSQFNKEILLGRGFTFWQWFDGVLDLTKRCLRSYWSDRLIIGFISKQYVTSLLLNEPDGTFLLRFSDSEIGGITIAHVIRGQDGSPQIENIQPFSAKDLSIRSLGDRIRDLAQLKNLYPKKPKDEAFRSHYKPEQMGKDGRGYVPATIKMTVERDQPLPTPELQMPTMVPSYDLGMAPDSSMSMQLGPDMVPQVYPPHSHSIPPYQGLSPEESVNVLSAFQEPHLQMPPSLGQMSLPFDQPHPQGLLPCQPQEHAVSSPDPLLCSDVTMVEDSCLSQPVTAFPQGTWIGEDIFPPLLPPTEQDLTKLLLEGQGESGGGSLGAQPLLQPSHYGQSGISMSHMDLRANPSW

As to `C[C@@H](c1cc2c(-c3ccc(N)nc3)ccnc2n1C)N1CCC(c2ccc(C(=O)N3CCC(CN4CCN(Cc5cc6c(cc5F)N(C5CCC(=O)NC5=O)C(=O)C65CC5)CC4)CC3)cc2)CC1` (stereo partly drawn) [Example 3h9, 3-(5′-((4-((1-(4-(1-((S)-1-(4-(6-aminopyridin-3-yl)-1-methyl-1H-pyrrolo[2,3-b]pyridin-2-yl)ethyl)piperidin-4-yl)benzoyl)piperidin-4-yl)methyl)piperazin-1-yl)methyl)-6′-fluoro-2′-oxospiro[cyclopropane-1,3′-indolin]-1′-yl)piperidine-2,6-dione], the DC50 in assay [1] amounted to 12.7 nM. Also, in assay [2], the EC50 was 43.7 nM.

`CNc1ccc(-c2ccnc3c2cc([C@H](C)N2CC=C(c4c(C)cc(C(=O)N(C)c5ccc(C6CCN(Cc7ccc8c(c7)C7(CC7)C(=O)N8C7CCC(=O)NC7=O)CC6)cc5)cc4F)CC2)n3C)cn1` (stereo partly drawn) [Example 3h11, N-(4-(1-((1′-(2,6-dioxopiperidin-3-yl)-2′-oxospiro[cyclopropane-1,3′-indolin]-5′-yl)methyl)piperidin-4-yl)phenyl)-3-fluoro-N,5-dimethyl-4-(1-((S)-1-(1-methyl-4-(6-(methylamino)pyridin-3-yl)-1H-pyrrolo[2,3-b]pyridin-2-yl)ethyl)-1,2,3,6-tetrahydropyridin-4-yl)benzamide]: the DC50 in assay [1] came out at 0.3 nM. Moreover, in assay [2], the EC50 worked out at 2.8 nM.

Consider `C[C@@H](c1cc2c(-c3ccc(N)nc3)ccnc2n1C)N1CCC(c2ccc(C(=O)N3CCC(CC4CCN(c5ccc6c(c5)C5(CC5)C(=O)N6C5CCC(=O)NC5=O)CC4)CC3)cc2)CC1` (stereo partly drawn) [Example 3h13, 3-(5′-(4-((1-(4-(1-((S)-1-(4-(6-aminopyridin-3-yl)-1-methyl-1H-pyrrolo[2,3-b]pyridin-2-yl)ethyl)piperidin-4-yl)benzoyl)piperidin-4-yl)methyl)piperidin-1-yl)-2′-oxospiro[cyclopropane-1,3′-indolin]-1′-yl)piperidine-2,6-dione], for which the DC50 in assay [1] was determined as 48.7 nM. Moreover, the half-maximal effective concentration (EC50) in assay [2] stood at 23.2 nM.

As for `CNc1ccc(-c2ccnc3c2cc([C@H](C)N2CC=C(c4c(C)cc(C(=O)N5CCC(CN6CCN(Cc7ccc8c(c7)C(C)(C)C(=O)N8C7CCC(=O)NC7=O)C[C@@H]6C)CC5)cc4F)CC2)n3C)cn1` (stereo partly drawn) [Example 3h18, 3-(5-(((S)-4-((1-(3-fluoro-5-methyl-4-(1-((S)-1-(1-methyl-4-(6-(methylamino)pyridin-3-yl)-1H-pyrrolo[2,3-b]pyridin-2-yl)ethyl)-1,2,3,6-tetrahydropyridin-4-yl)benzoyl)piperidin-4-yl)methyl)-3-methylpiperazin-1-yl)methyl)-3,3-dimethyl-2-oxoindolin-1-yl)piperidine-2,6-dione], the DC50 in assay [1] was determined as 6.3 nM. Moreover, in assay [2], the EC50 was found to be 12.3 nM.

On to `C[C@H]1CN(Cc2ccc3c(c2)C2(CC2)C(=O)N3C2CCC(=O)NC2=O)CCN1CC1CCN(C(=O)c2cc(F)c(C3CCN(Cc4cc5c(-c6ccc(N)nc6)ccnc5n4C)CC3)c(F)c2)CC1` (stereo partly drawn) [Example 3h24, 3-(5′-(((S)-4-((1-(4-(1-((4-(6-aminopyridin-3-yl)-1-methyl-1H-pyrrolo[2,3-b]pyridin-2-yl)methyl)piperidin-4-yl)-3,5-difluorobenzoyl)piperidin-4-yl)methyl)-3-methylpiperazin-1-yl)methyl)-2′-oxospiro[cyclopropane-1,3′-indolin]-1′-yl)piperidine-2,6-dione], for which, in assay [1], the half-maximal degradation concentration (DC50) was 1.4 nM. For the same compound, in assay [2], the EC50 was 3.9 nM.

As for `CNc1ccc(-c2ccnc3c2cc([C@H](C)N2CCC(c4ccc(C(=O)N5CCC(CN6CCN(Cc7ccc8c(c7)n(C7CC7)c(=O)n8C7CCC(=O)NC7=O)C[C@@H]6C)CC5)cc4)CC2)n3C)cn1` (stereo partly drawn) [Example 3h25, 3-(3-cyclopropyl-5-(((S)-3-methyl-4-((1-(4-(1-((S)-1-(1-methyl-4-(6-(methylamino)pyridin-3-yl)-1H-pyrrolo[2,3-b]pyridin-2-yl)ethyl)piperidin-4-yl)benzoyl)piperidin-4-yl)methyl)piperazin-1-yl)methyl)-2-oxo-2,3-dihydro-1H-benzo[d]imidazol-1-yl)piperidine-2,6-dione], in assay [1], the 50% degradation concentration (DC50) amounted to 1.9 nM. Further, in assay [2], the EC50 was determined as 3.4 nM.

As for `C[C@H]1CN(Cc2ccc3c(c2)C(C)(C)C(=O)N3[C@H]2CCC(=O)NC2=O)CCN1CC1CCN(C(=O)c2ccc(C3CCN([C@@H](C)c4cc5c(-c6ccc(N)nc6)ccnc5n4C)CC3)cc2)CC1` [Example 3h31, (S)-3-(5-(((S)-4-((1-(4-(1-((S)-1-(4-(6-aminopyridin-3-yl)-1-methyl-1H-pyrrolo[2,3-b]pyridin-2-yl)ethyl)piperidin-4-yl)benzoyl)piperidin-4-yl)methyl)-3-methylpiperazin-1-yl)methyl)-3,3-dimethyl-2-oxoindolin-1-yl)piperidine-2,6-dione], the DC50 in assay [1] amounted to 2.5 nM. Besides, the EC50 in assay [2] worked out at 8 nM.

For `C[C@H]1CN(Cc2ccc3c(c2)C(C)(C)C(=O)N3[C@@H]2CCC(=O)NC2=O)CCN1CC1CCN(C(=O)c2ccc(C3CCN([C@@H](C)c4cc5c(-c6ccc(N)nc6)ccnc5n4C)CC3)cc2)CC1` [Example 3h32, (R)-3-(5-(((S)-4-((1-(4-(1-((S)-1-(4-(6-aminopyridin-3-yl)-1-methyl-1H-pyrrolo[2,3-b]pyridin-2-yl)ethyl)piperidin-4-yl)benzoyl)piperidin-4-yl)methyl)-3-methylpiperazin-1-yl)methyl)-3,3-dimethyl-2-oxoindolin-1-yl)piperidine-2,6-dione], in assay [1], the DC50 was determined as 2.9 nM. Also, in assay [2], the EC50 came out at 22.4 nM.

For the compound `CNc1ccc(-c2ccnc3c2cc([C@H](C)N2CC=C(c4c(C)cc(C(=O)N5CCC(CN6CCN(Cc7cc8c(cc7F)N(C7CCC(=O)NC7=O)C(=O)C8(C)C)C[C@@H]6C)CC5)cc4F)CC2)n3C)cn1` (stereo partly drawn) [Example 3h33, 3-(6-fluoro-5-(((S)-4-((1-(3-fluoro-5-methyl-4-(1-((S)-1-(1-methyl-4-(6-(methylamino)pyridin-3-yl)-1H-pyrrolo[2,3-b]pyridin-2-yl)ethyl)-1,2,3,6-tetrahydropyridin-4-yl)benzoyl)piperidin-4-yl)methyl)-3-methylpiperazin-1-yl)methyl)-3,3-dimethyl-2-oxoindolin-1-yl)piperidine-2,6-dione], the DC50 in assay [1] stood at 36.7 nM. For the same compound, the EC50 in assay [2] was determined as 40.4 nM.

Consider `CNc1ccc(-c2ccnc3c2cc([C@H](C)N2CC=C(c4c(C)cc(C(=O)N5CCC(CN6CCN(Cc7cc8c(cc7F)N(C7CCC(=O)NC7=O)C(=O)C87CC7)CC6)CC5)cc4F)CC2)n3C)cn1` (stereo partly drawn) [Example 3h34, 3-(6′-fluoro-5′-((4-((1-(3-fluoro-5-methyl-4-(1-((S)-1-(1-methyl-4-(6-(methylamino)pyridin-3-yl)-1H-pyrrolo[2,3-b]pyridin-2-yl)ethyl)-1,2,3,6-tetrahydropyridin-4-yl)benzoyl)piperidin-4-yl)methyl)piperazin-1-yl)methyl)-2′-oxospiro[cyclopropane-1,3′-indolin]-1′-yl)piperidine-2,6-dione], for which, in assay [1], the DC50 came to 5.5 nM. In addition, the 50% effective concentration (EC50) in assay [2] stood at 8.5 nM.

On to `CNc1ccc(-c2ccnc3c2cc(CN2CCC(c4c(F)cc(C(=O)N5CCC(CN6CCN(Cc7ccc8c(c7)C7(CC7)C(=O)N8C7CCC(=O)NC7=O)C[C@@H]6C)CC5)cc4F)CC2)n3C)cn1` (stereo partly drawn) [Example 3h38, 3-(5′-(((S)-4-((1-(3,5-difluoro-4-(1-((1-methyl-4-(6-(methylamino)pyridin-3-yl)-1H-pyrrolo [2,3-b]pyridin-2-yl)methyl)piperidin-4-yl)benzoyl)piperidin-4-yl)methyl)-3-methylpiperazin-1-yl)methyl)-2′-oxospiro[cyclopropane-1,3′-indolin]-1′-yl)piperidine-2,6-dione], for which, in assay [1], the 50% degradation concentration (DC50) is 1.7 nM. The EC50 in assay [2] turned out to be 7.1 nM.

As for `CNc1ccc(-c2ccnc3c2cc([C@H](C)N2CC=C(c4c(C)cc(C(=O)N5CCC(CN6CCN(Cc7ccc8c(c7)C7(CCC7)C(=O)N8C7CCC(=O)NC7=O)C[C@@H]6C)CC5)cc4F)CC2)n3C)cn1` (stereo partly drawn) [Example 3h47, 3-(5′-(((S)-4-((1-(3-fluoro-5-methyl-4-(1-((S)-1-(1-methyl-4-(6-(methylamino)pyridin-3-yl)-1H-pyrrolo[2,3-b]pyridin-2-yl)ethyl)-1,2,3,6-tetrahydropyridin-4-yl)benzoyl)piperidin-4-yl)methyl)-3-methylpiperazin-1-yl)methyl)-2′-oxospiro[cyclobutane-1,3′-indolin]-1′-yl)piperidine-2,6-dione], in assay [1], the DC50 worked out at 7 nM. The 50% effective concentration (EC50) in assay [2] was 8.8 nM.

On to `C[C@H]1CN(Cc2ccc3c(c2)C2(CCC2)C(=O)N3C2CCC(=O)NC2=O)CCN1CC1CCN(C(=O)c2ccc(C3CCN([C@@H](C)c4cc5c(-c6ccc(N)nc6)ccnc5n4C)CC3)cc2)CC1` (stereo partly drawn) [Example 3h48, 3-(5′-(((S)-4-((1-(4-(1-((S)-1-(4-(6-aminopyridin-3-yl)-1-methyl-1H-pyrrolo[2,3-b]pyridin-2-yl)ethyl)piperidin-4-yl)benzoyl)piperidin-4-yl)methyl)-3-methylpiperazin-1-yl)methyl)-2′-oxospiro-[cyclobutane-1,3′-indolin]-1′-yl)piperidine-2,6-dione], for which the DC50 in assay [1] was determined as 3 nM. Besides, the EC50 in assay [2] was found to be 13.2 nM.

As to `C[C@@H](c1cc2c(-c3ccc(N)nc3)ccnc2n1C)N1CCC(c2ccc(C(=O)N3CCC(CN4CCN(Cc5ccc6c(c5)oc(=O)n6C5CCC(=O)NC5=O)CC4)CC3)cc2)CC1` (stereo partly drawn) [Example 3n5, 3-(6-((4-((1-(4-(1-((S)-1-(4-(6-aminopyridin-3-yl)-1-methyl-1H-pyrrolo[2,3-b]pyridin-2-yl)ethyl)-piperidin-4-yl)benzoyl)piperidin-4-yl)methyl)piperazin-1-yl)methyl)-2-oxobenzo[d]oxazol-3 (2H)-yl)piperidine-2,6-dione], the DC50 in assay [1] was determined as 2.7 nM. The concentration for a half-maximal effect (EC50) in assay [2] is 6 nM.
